Assay results reported in patent publication US20030229035A1, “Method of restoring ciliated cell motility” (priority 2001, published 2003).

Legend:
PKA = PKA (Homo sapiens, UniProt P17612); details: vendor Tocris; cited from earlier work
PKG = molecular target: T1, PKG (Homo sapiens, UniProt Q13976); details: no effect on PKG; cited from earlier work
T1 sequence (Q13976 1-671): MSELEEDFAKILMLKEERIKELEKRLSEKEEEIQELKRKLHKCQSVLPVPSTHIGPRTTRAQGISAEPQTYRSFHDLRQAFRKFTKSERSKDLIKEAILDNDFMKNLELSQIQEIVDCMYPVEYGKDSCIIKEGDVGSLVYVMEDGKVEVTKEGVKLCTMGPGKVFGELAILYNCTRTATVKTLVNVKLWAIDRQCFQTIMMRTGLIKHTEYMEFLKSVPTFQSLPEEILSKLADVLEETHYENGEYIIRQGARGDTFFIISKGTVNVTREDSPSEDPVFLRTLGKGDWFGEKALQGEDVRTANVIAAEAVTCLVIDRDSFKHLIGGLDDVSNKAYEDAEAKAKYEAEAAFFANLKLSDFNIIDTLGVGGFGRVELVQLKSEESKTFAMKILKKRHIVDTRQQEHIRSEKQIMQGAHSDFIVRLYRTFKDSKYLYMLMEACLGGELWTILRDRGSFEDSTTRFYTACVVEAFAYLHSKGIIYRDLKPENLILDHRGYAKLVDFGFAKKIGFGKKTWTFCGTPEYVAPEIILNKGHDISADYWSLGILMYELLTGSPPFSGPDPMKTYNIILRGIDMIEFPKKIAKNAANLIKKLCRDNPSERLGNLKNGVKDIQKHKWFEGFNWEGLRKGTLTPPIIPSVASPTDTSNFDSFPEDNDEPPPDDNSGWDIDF

PKC = details: no effect on PKC; cited from earlier work
proteosome pathway = test: Proteasome inhibition in CHO cells stably expressing recombinant Insl6, Western blot with anti-Insl6 antibody; assay type: cell-based, chinese hamster; details: 5 μM, cells harvested after 4 h or 24 h, FIG. 5D
Method: (§1) Based on the magnitude of difference in molecular weights between the two species (31-32 vs. 40 kDa), it was investigated whether Insl6 is ubiquinated. […] In contrast, the absence of the larger bands in a transcription/translation reaction using wheat germ extracts (FIG. 5C) supports the possibility that the Insl6 protein is ubiquinated. […] Briefly CHO cells stably expressing Insl6 were either exposed to vehicle (−) or 5 μM Clasto-Lactacystin-β-lactone (Clasto-L) (+) and cells harvested after 4 h (lanes A & B) or 24 h (lanes C & D). The cell lysates were Western blotted with anti-Insl6 antibody. To address te possibility that over-expression of Insl6 in the CHO cells may have facilitated aberrant ubiquination, the effect of inhibition of the proteasome pathway in a coupled in vitro transcriptiontranslation was investigated. The data obtained support the in vivo data showing that inhibition of the proteasome pathway results in decelerated rate of degradation of the Insl6 (FIG. 5E). Briefly, coupled in vitro transcription/translation of Insl6 using reticulocyte lysates performed in the presence of [^35S]

proteasome pathway = test: Coupled in vitro transcription/translation of Insl6 using reticulocyte lysates with proteasome inhibition; assay type: biochemical; details: 5 μM, [35S] L-cysteine, FIG. 5E
Method: as §1

MSC-1 cells = test: Proliferation of MSC-1 cells, colorimetric viable cell assay; assay type: cell-based, mouse; details: serum-deprived cells, varying time periods, conditioned medium from CHO cells expressing Insl6 vs non-transfected CHO; FIG. 12
Method: To further investigate the significance of alteration in the tyrosine phosphorylation status of MSC-1 proteins, the effects of Insl6 on proliferation of MSC-1 were tested. For these experiments serum-deprived MSC-1 cells were exposed for varying time periods to serum-free conditioned medium from either CHO cells expressing Insl6 or from non-transfected CHO cells and the number of viable cells determined by a colorimetic assay (celltiter 96 Aqueous One Solution Cell Proliferation Assay; Promega, Madison, Wis., USA).

[1] = system: rat primary Sertoli cells; test: Tyrosine phosphorylation profile of rat primary Sertoli cell proteins by Western blotting; assay type: cell-based; details: serum-deprived rat primary Sertoli cells, recombinant Insl6 in serum-free milieu
Excerpt: Although Sertoli cell lines are useful tools for investigating Sertoli cell function, they are important differences between primary Sertoli cells and established Sertoli cell lines. For example, compared to primary Sertoli cells, MSC-1 cells are relatively deficient in the FSH receptor. […] For this purpose, we exposed serum-deprived rat primary Sertoli cells to recombinant Insl6 in a serum-free milieu and determined the tyrosine phosphorylation profile of cellular proteins by Western blotting. […] Based on the premise that Insl6 belongs to the insulin family of proteins, the following canonical signaling pathways involving Insl6 action on Sertoli cells were investigated:
Isolation and culture of primary rat Sertoli cells—Rat Sertoli cells were isolated in our laboratory using a standardized protocol. […] The purity of the Sertoli cell isolate yielded by this protocol is >95% as determined by phase microscopy and alkaline phosphatase staining.
(§2) Western Blot Analysis—Western blot analyses were carried out by established protocols known by those skilled in art. […] Equality of loading and efficiency of transfer were assessed by Ponceau staining of the nitrocellulose filters and protein concentration determined by Bradford's method (BioRad). […]

[2] = system: MSC-1 (mouse Sertoli cell line) cells; test: Tyrosine phosphorylation of MSC-1 cellular proteins, anti-phosphotyrosine Western blot; assay type: cell-based; details: serum-deprived cells, ten minutes, serum-free conditioned medium from CHO cells expressing Insl6 vs non-transfected CHO; FIG. 11A
Excerpt: The effect of Insl6 on Sertoli cells was confirmed by exposing serum-deprived MSC-1 (mouse Sertoli cell line) cells to serum-free conditioned medium containing recombinant Insl6 secreted by the CHO cells stably expressing epitope-tagged Ins16. The effect of Insl6 on the phosphorylation status of MSC-1 cellular proteins was initially investigated. […] Serum-deprived MSC-1 cells were exposed for ten minutes to serum-free conditioned medium from either CHO cells expressing Insl6 (lane A, FIG. 11A) or from non-transfected CHO cells (lane B, FIG. 11A). Cell lysates were subjected to reducing SDS-PAGE and blotted with antiphphosphotyrosine antibodies. The specific protein bands showing increased phosphorylation in response to Insl6 are indicated by the diamond and star symbols respectively.
as §2

In the case of `CCCCCCOC(=O)[C@]1(O)C[C@@H]2O[C@@]1(C)n1c3ccccc3c3c4c(c5c6ccccc6n2c5c31)C(=O)NC4` [KT 5720], the Ki (PKA) is given as 0.06 µM, the Ki (PKG) is given as over 2 µM and the Ki (PKC) is given as over 2 µM.

In the case of `CC(C)[C@H](O)[C@@]12NC(=O)[C@H](C)[C@@H]1OC2=O` [Clasto-Lactacystin-β-lactone], the “effect on half-life of Insl6” value (proteosome pathway) is reported as “prolongation of the half-life of Insl6” and the “effect on rate of degradation of Insl6” value (proteasome pathway) is reported as “decelerated rate of degradation of Insl6”.

B1: Insl6: recombinant His-myc epitope-tagged murine Insl6, insulin family protein, secreted by stably expressing CHO cells (protein)
chain: EEESRPRKLCGRHLLIEVIKLCGQSDWSRFEMEEQSPMTQFFPHYSRKGKAFNPHPSSSAWRRFTNPVPAGVSQKKGTHTWEPQSLPDYQFEKTELLPKARVFSYHSGKPYVKSVQLQKKSTNKMNTFRSLFWGNHSQRKRRGFADKCCVIGCTKEEMAVACLPFVDF
modifications: left off: small tags and cut ends
For B1, the effect on proliferation (MSC-1 cells) was “significantly inhibits the proliferation of MSC-1 in a time-dependent manner”, the “effect on tyrosine phosphorylation of cellular proteins” value [1] was “alters the tyrosine phosphorylation status of cellular proteins” and the “effect on tyrosine phosphorylation of cellular proteins” value [2] was “specific tyrosine phosphorylation of proteins of molecular weights of approximately 55 and 40 kDa”.
